Laboratory results from patent publication US7901906B2, “Targeting of MKRN1 for identifying cancer treatment agents” (University of Central Florida Research Foundation, Inc., priority 2006, dated 2011).

What was measured:
hTERT [1] = assay: hTERT protein levels by immunoblotting in H1299 cells; format: cell-based, human
Experimental: FIG. 1. hTERT is sensitive to the Hsp90 antagonist geldanamycin. (A) Down-regulation of ectopically expressed hTERT by GA. H1299 cells transfected with Flag-hTERT or Flag-TRF1 were treated with 0.1 μM GA for the indicated times. Lysates were resolved on 8% SDS-PAGE and analyzed by immunoblotting using an anti-Flag antibody probe. Cells were pretreated with 10 μM MG132 or E-64 for 2 hours, either alone or before treatment with GA. (B) Concentration dependence of GA on hTERT. H1299 cells transfected with Flag-hTERT or hTERT-HA were treated for 2 hours with the GA concentration indicated. The hTERT polypeptides were visualized with anti-Flag or anti-HA antibodies as marked by each blot. (C) Down-regulation of endogenous hTERT by GA. H1299 cells were treated with 0.1 μM GA for the indicated times, and cell lysates were analyzed by immunoprecipitation with anti-hTERT antibody followed by immunoblotting using same antibody probe. Cells were pretreated with 10 μM MG132 for 2 hours, either alone or before treatment with GA. Molecular weight markers are shown in kilodaltons. (D) H1299 cells were treated with 0.1 μM GA for the indicated times, and cell lysates were analyzed for telomerase activity by the TRAP assay. The lane labeled LB corresponds to the negative control (lysis buffer only). ITAS represents the internal telomerase assay standard. (E) Saos-2 cells transfected with Flag-hTERT or hTERT-HA or empty vector were untreated or treated with 0.1 μM GA for 16 hours, and cell lysates were analyzed for telomerase activity using the TRAP assay.
(§1) FIG. 2. hTERT is ubiquitinated prior to proteasome-mediated degradation. (A) H1299 cells were co-transfected with Flag-hTERT and HA-ubiquitin. Cells were either untreated or treated for 2 hours with 10 μg/ml ALLnN or 0.1 μM GA, or a combination of the two as specified above each lane. Immunoprecipitation was performed with anti-Flag antibody before probing with anti-hTERT or anti-HA antibodies as indicated besides each blot. Molecular weight markers are shown in kilodaltons. (B) H1299 cells co-transfected with Flag-hTERT and HA-ubiquitin were treated for 1 hour with the GA concentration indicated in the presence of 10 μM MG132. Immunoprecipitation was performed with anti-Flag antibody followed by immunoblotting using an anti-HA antibody probe. (C) H1299 cells co-transfected with Flag-hTERT and HA-ubiquitin were either untreated or treated for 2 hours with 10 μg/ml ALLnN as specified above each lane. Proteins were immunoprecipated with anti-Flag antibody followed by immunoblotting using an anti-HA antibody probe.
The human lung carcinoma cell line H1299 was cultured in RPMI-1640 medium, and the human fibrosarcoma cell line HT1080 was cultured in Dulbecco's modified Eagle's medium supplemented with 10% fetal bovine serum, 100 units/ml penicillin, and 100 μg/ml streptomycin in 5% CO2 at 37° C. The human osteosarcoma cell line Saos-2 was maintained in McCoy's 5A medium containing 15% fetal bovine serum, 100 units/ml penicillin, and 100 μg/ml streptomycin. To establish cell lines stably expressing MKRN1, the MKRN1-V5 construct was transfected into HT1080 cells using Lipofectamine Plus (Invitrogen, Carlsbad, Calif.) according to the manufacturer's instructions. As a control, HT1080 cells were also stably transfected with an empty vector. Multiple independent single clones were isolated and checked for protein expression by immunoblotting with anti-V5 antibody.
H1299 cells were transiently transfected with the expression vectors indicated in the figure legends using TransFast transfection reagent (Promega, Madison, Wis.) according to the manufacturer's instructions. Cells were lysed with buffer containing 0.5% NP-40, 50 mM Tris-HCl (pH 7.5), 150 mM NaCl, 2 mM phenyl methylsulphonyl fluoride. […]

hTERT [2] = assay: Ubiquitination of hTERT in H1299 cells (immunoprecipitation, anti-HA immunoblot); format: cell-based, human; settings: H1299 Flag-hTERT and HA-ubiquitin, MG132
Experimental: as §1
(§2) FIG. 4. MKRN1 functions as an E3 ubiquitin-ligase for hTERT in vitro and in vivo. (A) HA-tagged hTERT (residues 946-1132) was incubated MKRN1 or mutants in the presence of E1, E2, His6-ubiquitin (6×His tag disclosed as SEQ ID NO: 7). Samples were resolved by 6% SDS-PAGE and analyzed by immunoblotting with an anti-HA antibody probe. (B) H1299 cells were co-transfected with Flag-hTERT, HA-ubiquitin, MKRN1-V5, and together with either MKRN1^H307E-V5 or MKRN1^Δ^C-V5 as specified. Cells were untreated or treated with 10 μM MG132 for 2 hours. Anti-Flag immunoprecipitates and cell lysates were analyzed by immunoblotting with anti-HA antibody and anti-V5 antibody probes, respectively. (C) H1299 cells co-transfected with Flag-hTERT and HA-ubiquitin, and together with or without MKRN1-V5 as indicated were treated with 10 μM MG132 for the indicated times. Anti-Flag immunoprecipitates and cell lysates were analyzed by immunoblotting with anti-HA antibody and anti-V5 antibody probes, respectively.
H1299 cells were transiently transfected with the expression vectors indicated in the figure legends using TransFast transfection reagent (Promega, Madison, Wis.) according to the manufacturer's instructions. Cells were lysed with buffer containing 0.5% NP-40, 50 mM Tris-HCl (pH 7.5), 150 mM NaCl, 2 mM phenyl methylsulphonyl fluoride. After centrifugation at 12,000 rpm for 30 min, the supernatants were immunoprecipitated for 2 hours with anti-Flag (Sigma, St. Louis, Mo.) or anti-HA (Santa Cruz biotechnology, Santa Cruz, Calif.) antibodies and then incubated with Sepharose beads conjugated to Protein G (Amersham Biosciences Inc., Piscataway, N.J.). When ubiquitin conjugates of hTERT were detected, immunoprecipitation was performed with lysis buffer containing 0.1% SDS to dissociate its interacting proteins. Immunoblot analyses were performed using anti-hTERT (Santa Cruz biotechnology, Santa Cruz, Calif.), anti-V5 (Invitrogen, Carlsbad, Calif.), anti-HA, and anti-Flag antibodies.
GA-mediated protein degradation by the proteasome depends on conjugation of ubiquitin to the Hsp90 client protein (Isaacs et al. 2002; Citri et al. 2002). To determine whether hTERT is ubiquitinated in vivo prior to its degradation, H1299 cells co-transfected with Flag-tagged hTERT and HA-tagged ubiquitin constructs were treated with GA, ALLnN (a general proteasome inhibitor) or both. The immunoprecipitated products were evaluated by immunoblotting with selected probes as described in FIG. 2. […]

[3] = system: hTERT (residues 946-1132); assay: In vitro ubiquitination assay; format: biochemical, human; settings: purified components, E1, E2, His6-ubiquitin, 30° C., 60 min
Experimental: as §2
GST-hTERT-HA expressed in bacteria was used as substrate for in vitro ubiquitination assay (Park et al. 2004). The ubiquitination reactions were carried out in buffer (50 mM Tris-HCl, pH 7.5, 2 mM ATP, 2.5 mM MgCl2, 5 mM dithiothreitol, and 0.05% NP-40) containing yeast E1 (0.05 μg), E2 (0.2 μg), and His6-ubiquitin (0.8 μg) (6×His disclosed as SEQ ID NO: 7) in a final volume of 30 μl. […]

Molecule: CC(C)C[C@H](NC(=O)[C@H]1O[C@@H]1C(=O)O)C(=O)NCCCCN=C(N)N [E-64]
- effect on GA-induced down-regulation of hTERT (hTERT [1]; H1299 Flag-hTERT, 10 μM pretreatment 2 hours, then GA 4 hours): had no effect
- hTERT expression levels, inhibitor alone (hTERT [1]; H1299 Flag-hTERT, 10 μM, absence of GA, relative to untreated controls): did not cause a significant change

Molecule: COC1=C2C[C@@H](C)C[C@H](OC)[C@H](O)[C@@H](C)/C=C(\C)[C@H](OC(N)=O)[C@@H](OC)/C=C\C=C(/C)C(=O)NC(=CC1=O)C2=O [GA, geldanamycin]
- hTERT protein eliminated (hTERT [1]; H1299 transfected with Flag-hTERT, 0.1 μM GA, within 2 hours): over 50%

B1: MKRN1^H307E: MKRN1 mutant with mutated histidine residue in the RING finger domain (protein)
chain: MAEAATPGTTATTSGAGAAAATAAAASPTPIPTVTAPSLGAGGGGGGSDGSGGGWTKQVTCRYFMHGVCKEGDNCRYSHDLSDSPYSVVCKYFQRGYCIYGDRCRYEHSKPLKQEEATATELTTKSSLAASSSLSSIVGPLVEMNTGEAESRNSNFATVGAGSEDWVNAIEFVPGQPYCGRTAPSCTEAPLQGSVTKEESEKEQTAVETKKQLCPYAAVGECRYGENCVYLHGDSCDMCGLQLLHPMDAAQRSQHIKSCIEAHEKDMELSFAVQRSKDMVCGICMEVVYEKANPSERRFGILSNCNETYCLKCIRKWRSAKQFESKIIKSCPECRITSNFVIPSEYWVEEKEEKQKLILKYKEAMSNKACRYFDEGRGSCPFGGNCFYKHAYPDAGREEPQRQKVGTSSRYRAQRRNHFWELIEERENSNPFDNDEEEVVTFELGEMLLMLLAAGGDDELTDSEDEWDLFHDELEDFYDLDL
modifications: left off: small tags and cut ends
- amount of ubiquitinated hTERT on co-expression (hTERT [2]): significantly reduced
- ubiquitination of C-terminal domain of hTERT [3]: not
